Experimental data reported in patent US5354691A, “Polypeptides and derivatives thereof as well as their use in pharmaceutical and diagnostic compositions” (priority 1987, dated 1994).

Columns and labels:
[1] = tested on: T-cell clones A2b and A2c; assay: Stimulating activity on T-cell clones A2b and A2c, stated for both clones together; format: cell-based, rat
[2] = tested on: T-cell clone A2b; assay: T-cell clone proliferation (3H-thymidine uptake, stimulation index), clone A2b; format: cell-based, rat; conditions: polypeptide with sequence homologous to antigen A 180-188
[3] = tested on: T-cell clones A2b and A2c; conditions: from European patent application 0 262 710 / EP-A-0 181 364; cited from earlier work

RARLQLELS [lamin A and C]
response of the T-cell clones A2b and A2c [1]: react positively

TFGLQPQDT [antigen from Epstein-Barr virus]
response of T-cell clone A2b [2]: responds

proteoglycan protein of cartilage: proteoglycan protein of cartilage (J.Biol.Chem. 261, 3519-3535)
recognition by / response of T-cell clones A2b and A2c [3]: recognized
